The values that follow come from BindingDB's records for doi:10.7270/Q2891498 (Nmmlsc, 2009).

This assay has as its target T1, GTPase KRas [1-37] (Homo sapiens, UniProt G3V5T7).
T1 construct: 1-37
In words: Ras wt fluorescent nucleotide binding blockade – biochemical, additional analogs, wildtype, multiplex flow cytometry, Ki, SAR follow-up (AID 2038). A general note: In flow cytometry, cells or beads pass a laser one at a time.

Structures are written as SMILES.

T1 sequence (G3V5T7 whole entry): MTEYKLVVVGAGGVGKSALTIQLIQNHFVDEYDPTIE

`O=C1N=c2c(Br)cccc2=C1c1[nH]c2ccccc2c1NO` [7-bromanyl-3-[3-(oxidanylamino)-1H-indol-2-yl]indol-2-one] returned a Ki of 5.85 µM. This counts as single-digit micromolar.

A word on the Ki: it is a dissociation constant, usually derived from enzyme kinetics or from competition with a known ligand. Read a high Ki as a looser hold on the target.
